Assay results reported in patent US20150105252A1, “SUBSTITUTED PYRAZOLES AS HERBICIDES” (E I DU PONT DE NEMOURS AND COMPANY, priority 2013, published 2015).

Columns and labels:
lambsquarters [1] = assay: Test C postemergence; format: in vivo, Chenopodium album; details: for Plant response rating (scale of 0 to 100 where 0 is no effect and 100 is complete control), Lambsquarters: Postemergence, 31 g ai/ha, visually evaluated after 13 to 15 days; for Lambsquarters plant response rating / Plant response rating, Lambsquarters: postemergence; for Lambsquarters plant response rating: 62 g ai/ha, scale 0 to 100
Outline: (§1)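 Visual rating, 0–100 scale (0 no effect, 100 complete control), vs untreated controls after 13–15 d greenhouse. Pre: seeds in loam/sand, treated at sowing. Post: plants in peat-based mix, 1- to 4-leaf (2–18 cm). Solvent + surfactant formulation, non-phytotoxic.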

galium = assay: Test C preemergence; format: in vivo, Galium aparine; details: for Galium plant response rating / Plant response rating, Galium: preemergence; for Plant response rating, Galium: 125 g ai/ha, scale 0 to 100, 0 = no effect, 100 = complete control
Outline: as §1

pigweed = assay: Test A preemergence; format: in vivo, Amaranthus retroflexus; details: preemergence
Outline: (§2)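 Visual injury rating, 0–100 (0 no effect, 100 complete control), vs untreated controls ~10 days after treatment in greenhouse. Pre: directed soil spray on seeded loam/sand. Post: 2–10 cm plants, 1–2 leaf stage. Formulation: non-phytotoxic solvent mix + surfactant.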

corn = assay: Test C preemergence; format: in vivo, Zea mays; details: for Corn plant response rating / Plant response rating, Corn: preemergence; for Plant response rating, Corn: 125 g ai/ha, scale 0 to 100, 0 = no effect, 100 = complete control
Outline: as §1

ragweed = assay: Test C preemergence; format: in vivo, Ambrosia elation; details: for Ragweed plant response rating / Plant response rating, Ragweed: preemergence; for Plant response rating, Ragweed: 125 g ai/ha, scale 0 to 100, 0 = no effect, 100 = complete control
Outline: as §1

wheat [2] = assay: Test A postemergence; format: in vivo, Triticum aestivum
Outline: as §2

kochia = assay: Test C postemergence; format: in vivo, Kochia scoparia; details: for Plant response rating (scale of 0 to 100 where 0 is no effect and 100 is complete control), Kochia: Postemergence, 31 g ai/ha, visually evaluated after 13 to 15 days; for Kochia plant response rating / Plant response rating, Kochia: postemergence; for Kochia plant response rating: 62 g ai/ha, scale 0 to 100
Outline: as §1

crabgrass, large = assay: Test C postemergence; format: in vivo, Digitaria sanguinalis; details: for Plant response rating (scale of 0 to 100 where 0 is no effect and 100 is complete control), Crabgrass, Large: Postemergence, 31 g ai/ha, visually evaluated after 13 to 15 days; for Crabgrass, Large plant response rating / Plant response rating, Crabgrass, Large: postemergence; for Crabgrass, Large plant response rating: 62 g ai/ha, scale 0 to 100
Outline: as §1

ryegrass, Italian = assay: Test C postemergence; format: in vivo, Lolium multiflorum
Outline: as §1

wheat [3] = assay: Test C preemergence; format: in vivo, Triticum aestivum; details: for Wheat plant response rating / Plant response rating, Wheat: preemergence; for Plant response rating, Wheat: 125 g ai/ha, scale 0 to 100, 0 = no effect, 100 = complete control
Outline: as §1

sedge, umbrella = assay: Test B flood; format: in vivo, Cyperus difformis; details: 250 g ai/ha, visual rating on 0 to 100 scale (0 no effect, 100 complete control), 13 to 15 days
Outline: (§3)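 2-leaf plants; pots flooded 3 cm over soil; compound added to paddy water, depth kept constant. Greenhouse 13–15 d. Visual rating vs controls, 0–100 scale (100 = complete control); dash = no result.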

rice = assay: Test B flood; format: in vivo, Oryza sativa; details: 250 g ai/ha, visual rating on 0 to 100 scale (0 no effect, 100 complete control), 13 to 15 days
Outline: as §3

lambsquarters [4] = assay: Test C preemergence; format: in vivo, Chenopodium album; details: for Lambsquarters plant response rating / Plant response rating, Lambsquarters: preemergence; for Plant response rating, Lambsquarters: 125 g ai/ha, scale 0 to 100, 0 = no effect, 100 = complete control
Outline: as §1

[5] = 250 g ai/ha, scale 0 to 100 (0 no effect, 100 complete control)
[6] = 125 g ai/ha, scale 0 to 100, 0 no effect, 100 complete control
[7] = 31 g ai/ha, visual rating, scale 0 to 100 (0 no effect, 100 complete control), 13 to 15 days
[8] = 62 g ai/ha, scale 0 to 100 (0 no effect, 100 complete control), 13 to 15 days
[9] = 500 g ai/ha, visual injury after approx. 10 days, 0 to 100 scale (0 no effect, 100 complete control)
[10] = Postemergence, 500 g ai/ha, 0 to 100 scale (0 no effect, 100 complete control)
[11] = postemergence, 125 g ai/ha, about 10 days, visual rating on 0 to 100 scale (0 no effect, 100 complete control)
[12] = postemergence, 250 g ai/ha, scale 0 to 100 (0 no effect, 100 complete control)
[13] = postemergence, 125 g ai/ha, scale 0 to 100, 0 no effect, 100 complete control
[14] = 250 g ai/ha, scale 0 to 100, 0 is no effect, 100 is complete control

SMILES: CCONC(=O)c1cc(CC)n(Cc2ccnc(OC(F)F)c2)n1 [Compound 131]
- Plant response rating (scale of 0 to 100 where 0 is no effect and 100 is complete control), Lambsquarters (lambsquarters [1]): 15
- Lambsquarters plant response rating (lambsquarters [1]): 40
- Plant response rating, Lambsquarters (lambsquarters [1]; [5]): 85
- Plant response rating, Lambsquarters (lambsquarters [1]; [6]): 65
- Plant response rating (scale of 0 to 100), Galium (galium; Preemergence, 250 g ai/ha): 98
- Galium plant response rating (galium; [7]): 55
- Galium plant response rating (galium; [8]): 75
- Plant response rating, Galium (galium; 13 to 15 days): 75
- Pigweed plant response rating (pigweed; 125 g ai/ha, visual injury, 0 to 100 scale, approx. 10 days): 100
- Pigweed plant response rating (pigweed; [9]): 100
- Plant response rating (scale of 0 to 100), Corn (corn; Preemergence, 250 g ai/ha): 98
- Corn plant response rating (corn; [7]): 40
- Corn plant response rating (corn; [8]): 90
- Plant response rating, Corn (corn; 13 to 15 days): 95
- Plant response rating (scale of 0 to 100), Ragweed (ragweed; Preemergence, 250 g ai/ha): 100
- Ragweed plant response rating (ragweed; [7]): 75
- Ragweed plant response rating (ragweed; [8]): 85
- Plant response rating, Ragweed (ragweed; 13 to 15 days): 100
- Wheat plant response rating (wheat [2]; [10]): 90
- Wheat plant response rating (wheat [2]; [11]): 80
- Plant response rating (scale of 0 to 100 where 0 is no effect and 100 is complete control), Kochia (kochia): 40
- Kochia plant response rating (kochia): 70
- Plant response rating, Kochia (kochia; [5]): 75
- Plant response rating, Kochia (kochia; [6]): 70
- Plant response rating (scale of 0 to 100 where 0 is no effect and 100 is complete control), Crabgrass, Large (crabgrass, large): 5
- Crabgrass, Large plant response rating (crabgrass, large): 5
- Plant response rating, Crabgrass, Large (crabgrass, large; [5]): 40
- Plant response rating, Crabgrass, Large (crabgrass, large; [6]): 15
- Plant response rating (scale of 0 to 100 where 0 is no effect and 100 is complete control), Ryegrass, Italian (ryegrass, Italian; Postemergence, 31 g ai/ha, visually evaluated after 13 to 15 days): 5
- Ryegrass, Italian plant response rating (ryegrass, Italian; postemergence, 62 g ai/ha, scale 0 to 100): 5
- Plant response rating, Ryegrass, Italian (ryegrass, Italian; [12]): 10
- Plant response rating, Ryegrass, Italian (ryegrass, Italian; [13]): 10
- Plant response rating (scale of 0 to 100), Wheat (wheat [3]; Preemergence, 250 g ai/ha): 95
- Wheat plant response rating (wheat [3]; [7]): 45
- Wheat plant response rating (wheat [3]; [8]): 85
- Plant response rating, Wheat (wheat [3]; 13 to 15 days): 50
- Plant response rating, Sedge, Umbrella (sedge, umbrella): 90
- Plant response rating, Rice (rice): 40
- Plant response rating (scale of 0 to 100), Lambsquarters (lambsquarters [4]; Preemergence, 250 g ai/ha): 100
- Lambsquarters plant response rating (lambsquarters [4]; [7]): 98
- Lambsquarters plant response rating (lambsquarters [4]; [8]): 100
- Plant response rating, Lambsquarters (lambsquarters [4]; 13 to 15 days): 100

SMILES: CCCNC(=O)c1cc(CCF)n(Cc2ccnc(C(F)(F)F)c2)n1 [Compound 177]
- Plant response rating (scale of 0 to 100 where 0 is no effect and 100 is complete control), Lambsquarters (lambsquarters [1]): 65
- Lambsquarters plant response rating (lambsquarters [1]): 50
- Plant response rating, Lambsquarters (lambsquarters [1]; [5]): 85
- Plant response rating, Lambsquarters (lambsquarters [1]; [6]): 75
- Galium plant response rating (galium; [7]): 100
- Galium plant response rating (galium; [8]): 100
- Plant response rating, Galium (galium; 13 to 15 days): 100
- Galium plant response rating (galium; [14]): 100
- Pigweed plant response rating (0 to 100 scale) (pigweed; 125 g ai/ha, visual injury approx. 10 days after treatment): 100
- Pigweed plant response rating (pigweed; [9]): 100
- Corn plant response rating (corn; [7]): 5
- Corn plant response rating (corn; [8]): 40
- Plant response rating, Corn (corn; 13 to 15 days): 90
- Corn plant response rating (corn; [14]): 98
- Ragweed plant response rating (ragweed; [7]): 75
- Ragweed plant response rating (ragweed; [8]): 85
- Plant response rating, Ragweed (ragweed; 13 to 15 days): 98
- Ragweed plant response rating (ragweed; [14]): 98
- Wheat plant response rating (wheat [2]; [10]): 100
- Wheat plant response rating (wheat [2]; [11]): 50
- Plant response rating (scale of 0 to 100 where 0 is no effect and 100 is complete control), Kochia (kochia): 60
- Kochia plant response rating (kochia): 85
- Plant response rating, Kochia (kochia; [5]): 90
- Plant response rating, Kochia (kochia; [6]): 90
- Plant response rating (scale of 0 to 100 where 0 is no effect and 100 is complete control), Crabgrass, Large (crabgrass, large): 5
- Crabgrass, Large plant response rating (crabgrass, large): 5
- Plant response rating, Crabgrass, Large (crabgrass, large; [5]): 10
- Plant response rating, Crabgrass, Large (crabgrass, large; [6]): 5
- Plant response rating, Ryegrass, Italian (ryegrass, Italian; [12]): 5
- Plant response rating, Ryegrass, Italian (ryegrass, Italian; [13]): 5
- Wheat plant response rating (wheat [3]; [7]): 10
- Wheat plant response rating (wheat [3]; [8]): 10
- Plant response rating, Wheat (wheat [3]; 13 to 15 days): 50
- Wheat plant response rating (wheat [3]; [14]): 90
- Plant response rating, Sedge, Umbrella (sedge, umbrella): 95
- Plant response rating, Rice (rice): 15
- Lambsquarters plant response rating (lambsquarters [4]; [7]): 85
- Lambsquarters plant response rating (lambsquarters [4]; [8]): 98
- Plant response rating, Lambsquarters (lambsquarters [4]; 13 to 15 days): 98
- Lambsquarters plant response rating (lambsquarters [4]; [14]): 98
